# Test results reported in patent publication USRE38257E1, “Piperdine derivatives and hypotensives containing the same” (Ajinomoto Co., Inc., priority 1988, dated 2003).
# System: male spontaneously hypertensive rats
# Assay: Decrease in systolic blood pressure in spontaneously hypertensive rats after intravenous bolus injection, indirect (tail-cuff) method
# Assay type: in vivo, rat
# Conditions: for Decrease in systolic blood pressure (mmHg) time after administration (hour) 0.5: 0.5 hour after administration; for Decrease in systolic blood pressure (mmHg) time after administration (hour) 4: 4 hours after administration
# Method: As test animals, four male spontaneously hypertensive rats (weight 400 to 440 g) that were sufficiently adapted for feeding and in which hypertension was confirmed were used.
# Physiological saline aqueous solution containing 2.5% Nicolle and 2.5% ethanol of sample was intravenously administered by bolus injection at a dose of 1 ml per 1 kg of body weight. Systolic blood pressure after administration was measured by the indirect (tail-cuff) method.
compound,measurement,setting,value
"Cl.OCC1(CCCCN2CCC(=C3c4ccccc4C=Cc4ccccc43)CC2)CCCCC1 [Example 272, 1-(4-(4-(5H-Dibenzo[a,d]cyclohepten-5-ylidene)-1-piperidinyl)-1-butyl)-1-hydroxymethylcyclohexane hydrochloride]",Decrease in systolic blood pressure (mmHg) time after administration (hour) 0.5,dose 10 mg/kg i.v. bolus,−76 mmHg
same,Decrease in systolic blood pressure (mmHg) time after administration (hour) 4,dose 10 mg/kg i.v. bolus,−3 mmHg
"C1=Cc2ccccc2C(=C2CCN(Cc3cccc4ccccc34)CC2)c2ccccc21.Cl [Example 214, 4-(5H-Dibenzo[a,d]cyclohepten-5-ylidene)-1-(1-naphthylmethyl)piperidine hydrochloride]",Decrease in systolic blood pressure (mmHg) time after administration (hour) 0.5,dose 10 mg/kg i.v. bolus,−126 mmHg
same,Decrease in systolic blood pressure (mmHg) time after administration (hour) 4,dose 10 mg/kg i.v. bolus,−21 mmHg
"Cc1cccc(CN2CCC(=C3c4ccccc4C=Cc4ccccc43)CC2)c1.Cl [Example 132, 4-(5H-Dibenzo[a,d]cyclohepten-5-ylidene)-1-(3-methylbenyl)piperidine hydrochloride]",Decrease in systolic blood pressure (mmHg) time after administration (hour) 0.5,dose 10 mg/kg i.v. bolus,−106 mmHg
same,Decrease in systolic blood pressure (mmHg) time after administration (hour) 4,dose 10 mg/kg i.v. bolus,−5 mmHg
"Cl.Cl.Nc1ccccc1CN1CCC(=C2c3ccccc3C=Cc3ccccc32)CC1 [Example 138, 1-(2-Aminobenzy)-4-(5H-Dibenzo[a,d]cyclohepten-5-ylidene)piperidine dihydrochloride]",Decrease in systolic blood pressure (mmHg) time after administration (hour) 0.5,dose 10 mg/kg i.v. bolus,−129 mmHg
same,Decrease in systolic blood pressure (mmHg) time after administration (hour) 4,dose 10 mg/kg i.v. bolus,−33 mmHg
"COC(=O)C1(CCCCCN2CCC(=C3c4ccccc4C=Cc4ccccc43)CC2)CCCCC1.Cl [Example 313, 1-(5-(4-(5H-Dibenzo[a,d]cyclohepten-5-ylidene)-1-piperidinyl)-1-pentyl)-1-methoxycarbonylcyclohexane hydrochloride]",Decrease in systolic blood pressure (mmHg) time after administration (hour) 0.5,dose 10 mg/kg i.v. bolus,−154 mmHg
same,Decrease in systolic blood pressure (mmHg) time after administration (hour) 4,dose 10 mg/kg i.v. bolus,−85 mmHg
"Cl.O=[N+]([O-])c1ccc(C=CCN2CCC(=C3c4ccccc4C=Cc4ccccc43)CC2)cc1 [Example 325, (5H-Dibenzo[a,d]cyclohepten-5-ylidene)-1-(4-nitrocinnamyl)piperidine hydrochloride]",Decrease in systolic blood pressure (mmHg) time after administration (hour) 0.5,dose 10 mg/kg i.v. bolus,−115 mmHg
same,Decrease in systolic blood pressure (mmHg) time after administration (hour) 4,dose 10 mg/kg i.v. bolus,−100 mmHg
"CC(=O)N(CCCN1CCC(=C2c3ccccc3C=Cc3ccccc32)CC1)C1CCCCC1.Cl [Example 267, N-Acetyl-N-(3-4-(5H-Dibenzo[a,d]cyclohepten-5-ylidene)-1-piperidinyl)-1-propylcyclohexylamine hydrochloride]",Decrease in systolic blood pressure (mmHg) time after administration (hour) 0.5,dose 10 mg/kg i.v. bolus,−40 mmHg
same,Decrease in systolic blood pressure (mmHg) time after administration (hour) 4,dose 10 mg/kg i.v. bolus,0 mmHg
"CCOC(=O)N1CCCC(CCCCN2CCC(=C3c4ccccc4C=Cc4ccccc43)CC2)C1.Cl (stereo not shown) [Example 312, 4-(4-(5H-Dibenzo[a,d]cyclohepten-5-ylidene)-1-piperidinyl)-1-(N-ethoxycarbonyl-3-piperidinyl)butane hydrochloride]",Decrease in systolic blood pressure (mmHg) time after administration (hour) 0.5,dose 10 mg/kg i.v. bolus,−115 mmHg
same,Decrease in systolic blood pressure (mmHg) time after administration (hour) 4,dose 10 mg/kg i.v. bolus,−11 mmHg
"CCCCCCCCCCN1CCC(=C2c3ccccc3C=Cc3ccccc32)CC1.Cl [Example 3, 1-Decyl-4-(5H-dibenzo[a,d]cyclohepten-5-ylidene)piperidine hydrochloride]",Decrease in systolic blood pressure (mmHg) time after administration (hour) 0.5,dose 3 mg/kg i.v. bolus,−110 mmHg
same,Decrease in systolic blood pressure (mmHg) time after administration (hour) 4,dose 3 mg/kg i.v. bolus,−22 mmHg
"Cl.OC(CCCN1CCC(=C2c3ccccc3C=Cc3ccccc32)CC1)c1ccc(F)cc1 (stereo not shown) [Example 108, 4-(4-(5H-Dibenzo[a,d]cyclohepten-5-ylidene)-1-piperidinyl)-1-hydroxy-1-(4-fluorophenyl)butane hydrochloride]",Decrease in systolic blood pressure (mmHg) time after administration (hour) 0.5,dose 10 mg/kg i.v. bolus,−126 mmHg
same,Decrease in systolic blood pressure (mmHg) time after administration (hour) 4,dose 10 mg/kg i.v. bolus,−50 mmHg
"C1=Cc2ccccc2C(=C2CCN(Cc3cccnc3)CC2)c2ccccc21.Cl.Cl [Example 162, 4-(5H-Dibenzo[a,d]cyclohepten-5-ylidene)-1-(3-Picolyl)piperidine dihydrochloride]",Decrease in systolic blood pressure (mmHg) time after administration (hour) 0.5,dose 10 mg/kg i.v. bolus,−62 mmHg
same,Decrease in systolic blood pressure (mmHg) time after administration (hour) 4,dose 10 mg/kg i.v. bolus,−3 mmHg
